Data on twelve molecules can be found in patent US20250171495A1, “MUTLI-TARGETED SERINE PROTEASE INHIBITORS FOR TREATMENT OF CANCER AND VIRAL INFECTION” (Washington University, priority 2023, published 2025).

Where two headings read alike, the source gives them in different places.

One data set deals with T1, matriptase (Homo sapiens, UniProt Q9Y5Y6).
T1 construct: purchased R&D Systems 3946-SEB-010
T1 sequence (Q9Y5Y6 615-855 limits assumed): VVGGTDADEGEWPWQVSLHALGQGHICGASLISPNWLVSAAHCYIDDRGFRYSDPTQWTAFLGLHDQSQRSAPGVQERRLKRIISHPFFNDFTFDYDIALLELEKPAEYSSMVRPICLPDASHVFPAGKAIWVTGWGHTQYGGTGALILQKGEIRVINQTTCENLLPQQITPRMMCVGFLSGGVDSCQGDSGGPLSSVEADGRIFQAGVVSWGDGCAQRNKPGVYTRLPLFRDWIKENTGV
The experiment in a line: Fluorogenic kinetic enzyme inhibitor assay, matriptase. The class given is biochemical.

The next data set deals with T2, Factor Xa (Homo sapiens, UniProt P00742).
T2 construct: TMPRSS2; Matriptase; Hepsin; HGFA; Thrombin; Factor Xa
T2 sequence (P00742 235-488 limits assumed): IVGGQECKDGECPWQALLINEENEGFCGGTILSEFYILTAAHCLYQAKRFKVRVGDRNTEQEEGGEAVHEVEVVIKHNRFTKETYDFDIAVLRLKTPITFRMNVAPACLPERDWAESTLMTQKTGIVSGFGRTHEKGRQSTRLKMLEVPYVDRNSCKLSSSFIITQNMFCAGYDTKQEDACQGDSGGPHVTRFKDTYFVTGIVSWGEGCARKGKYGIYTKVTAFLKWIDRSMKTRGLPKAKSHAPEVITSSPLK
T2 sequence (P00742 41-179 partner limits assumed): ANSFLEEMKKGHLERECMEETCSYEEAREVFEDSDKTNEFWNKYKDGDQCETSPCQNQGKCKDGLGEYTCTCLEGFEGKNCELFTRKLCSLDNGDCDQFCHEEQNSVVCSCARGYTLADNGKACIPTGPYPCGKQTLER
The experiment in a line: Fluorogenic assay, Factor Xa. The class given is biochemical. To be noted: read-out: Factor Xa IC50.

A further data set addresses TMPRSS2 (Homo sapiens, UniProt O15393). Description: Fluorogenic kinetic enzyme inhibitor assay, TMPRSS2. The data set is classed as biochemical. Further details: purchased Cusabio Technology CSB-YP023924HU.
Another data set concerns the target T3, HGFA (Homo sapiens, UniProt Q04756).
T3 construct: purchased R&D Systems 1514-SE-010
T3 sequence (Q04756 408-655 limits assumed): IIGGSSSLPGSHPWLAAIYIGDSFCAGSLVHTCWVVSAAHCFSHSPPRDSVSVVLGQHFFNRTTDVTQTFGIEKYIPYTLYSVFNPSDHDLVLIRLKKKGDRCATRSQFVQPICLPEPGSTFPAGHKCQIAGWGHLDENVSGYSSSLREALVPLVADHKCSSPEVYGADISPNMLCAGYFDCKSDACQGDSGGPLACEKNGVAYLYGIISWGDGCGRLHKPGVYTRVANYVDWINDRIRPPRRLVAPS
T3 sequence (Q04756 373-407 partner limits assumed): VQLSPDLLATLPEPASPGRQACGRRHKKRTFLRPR
The experiment in a line: Fluorogenic kinetic enzyme inhibitor assay, HGFA. The class given is biochemical.

The test system of the next data set is SARS-CoV-2. The data set is classed as cell-based. Further details: unit not given here.
A further data set addresses Thrombin (Homo sapiens, UniProt P00734). Description: Fluorogenic assay, thrombin. The class given is biochemical.
In a further data set the target is T4, hepsin (Homo sapiens, UniProt P05981).
T4 construct: purchased R&D Systems 4776-SE-010
T4 sequence (P05981 163-417 limits assumed): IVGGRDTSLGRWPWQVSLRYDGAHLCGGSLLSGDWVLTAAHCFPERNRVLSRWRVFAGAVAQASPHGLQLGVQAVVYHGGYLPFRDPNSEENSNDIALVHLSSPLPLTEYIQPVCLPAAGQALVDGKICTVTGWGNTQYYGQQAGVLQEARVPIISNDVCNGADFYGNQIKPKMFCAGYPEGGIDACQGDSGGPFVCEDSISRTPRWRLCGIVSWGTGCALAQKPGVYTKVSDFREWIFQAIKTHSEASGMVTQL
T4 sequence (P05981 1-162 partner limits assumed): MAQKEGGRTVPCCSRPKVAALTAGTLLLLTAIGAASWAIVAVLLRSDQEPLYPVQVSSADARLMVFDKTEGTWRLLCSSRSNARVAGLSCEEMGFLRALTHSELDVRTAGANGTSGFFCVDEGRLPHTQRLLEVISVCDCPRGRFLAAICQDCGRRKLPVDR
The experiment in a line: Fluorogenic kinetic enzyme inhibitor assay, hepsin. The class given is biochemical.

Where [1] appears, read: 30 min incubation, Boc-QLR-AMC at Km, read-out: HGFA IC50.
Setting [2] is: 30 min incubation, Boc-QAR-AMC at Km, read-out: Hepsin IC50.
Where [3] appears, read: 30 min incubation, Boc-QAR-AMC at Km, read-out: TMPRSS2 IC50.

Chain of TMPRSS2 (O15393 106-492 limits assumed): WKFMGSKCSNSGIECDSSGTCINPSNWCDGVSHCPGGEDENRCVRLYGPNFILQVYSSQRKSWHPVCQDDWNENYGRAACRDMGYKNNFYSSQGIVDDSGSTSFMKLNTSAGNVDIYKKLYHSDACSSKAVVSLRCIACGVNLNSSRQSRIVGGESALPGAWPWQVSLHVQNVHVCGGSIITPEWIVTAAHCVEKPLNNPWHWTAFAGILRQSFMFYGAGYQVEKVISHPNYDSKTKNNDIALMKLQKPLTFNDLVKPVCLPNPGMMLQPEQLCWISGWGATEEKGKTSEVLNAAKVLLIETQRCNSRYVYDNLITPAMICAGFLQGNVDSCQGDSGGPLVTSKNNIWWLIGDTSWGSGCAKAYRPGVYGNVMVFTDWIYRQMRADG

Usually IC50 stands for the concentration needed to halve the response being measured. With `CC(=O)N[C@H]1CC(=O)NCCCC[C@@H](C(=O)N[C@@H](CCCNC(=N)N)C(=O)c2nc3ccccc3s2)NC(=O)[C@H](CC(C)C)NC1=O` [VD2173, Ac-Cyclo(DLK)—R-ketobenzothiazole], the IC50 at matriptase (read-out: Matriptase IC50) was 0.0026 µM; at Factor Xa, 2.05 µM; against TMPRSS2, 0.00214 µM; at HGFA (read-out: HGFA IC50), 8.52 µM; at Thrombin, 8.14 µM; on hepsin (read-out: Hepsin IC50) it was 0.019 µM. Besides, the “SARS-CoV-2 Calu-3- titer (0.01 uM)” value in the data set on SARS-CoV-2 was found to be 11. Also, the “SARS-CoV-2 Calu-3 titer (0.1 uM)” value with SARS-CoV-2 was determined as 17. Besides, in the data set on SARS-CoV-2, the “SARS-CoV-2 Calu-3 titer (1 uM)” value amounted to 57.

On to `CC(=O)N[C@H]1CC(=O)NCCCC[C@@H](C(=O)O)NC(=O)[C@H](CC(C)C)NC1=O`, for which the ring closure, yield of all isomers (from CC(=O)N[C@@H](CC(=O)O)C(=O)N[C@@H](CC(C)C)C(=O)N[C@@H](CCCCN)C(=O)O, amide bond, EDCI/HOBt/iPr2NEt, DMF, 21.25 mM, 25.0 °C, 16.0 h, 9 steps) was 59.1%.

Molecule `COC(=O)[C@@H]1CC=CCOc2ccc(cc2)C[C@H](NC(C)=O)C(=O)N[C@@H](CC(C)C)C(=O)N1` [Ac-cyclo-(L) Tyr-Leu-allyl-OMe] gave a ring closure, yield of all isomers (from C=CCOc1ccc(C[C@H](NC(C)=O)C(=O)N[C@@H](CC(C)C)C(=O)N[C@@H](CC=C)C(=O)OC)cc1, rcm bond, Grubbs 2nd generation catalyst, DCM, 1.28 mM, 40.0 °C, 18.0 h) of 65%.

Consider `CC(=O)N[C@@H](Cc1c[nH]c2ccccc12)C(=O)N[C@@H](Cc1ccccc1)C(=O)N[C@@H](CCCNC(=N)N)C(=O)c1nc2ccccc2s1` [PK-1-102A1, N-[(S)-1-[(1,3-benzothiazol-2-yl)carbonyl]-4-guanidinobutyl](S)-2-[(S)-2-acetylamino-3-(3-indolyl)propionylamino]-3-phenylpropionamide], for which the concentration for half-maximal inhibition (IC50) on matriptase (read-out: Matriptase IC50) is 0.0057 µM; on Factor Xa, 0.0216 µM; at TMPRSS2 (read-out: TMPRSS2 IC50), 0.000388 µM; on HGFA (read-out: HGFA IC50), 0.329 µM; against Thrombin it was over 20 µM; at hepsin (read-out: Hepsin IC50), 0.0076 µM.

Turning to `CSCC[C@@H]1NC(=O)[C@@H](NC(C)=O)CC(=O)NCCCC[C@@H](C(=O)N[C@@H](CCCNC(=N)N)C(=O)c2nc3ccccc3s2)NC1=O` [VD3173, N-[(S)-1-[(1,3-benzothiazol-2-yl)carbonyl]-4-guanidinobutyl]-(3S,6S,14S)-6-acetylamino-3-[2-(methylthio)ethyl]-2,5,8-trioxo-1,4,9-triaza-14-cyclotetradecanecarboxamide], the concentration for half-maximal inhibition (IC50) worked out at 0.001 µM on matriptase (read-out: Matriptase IC50); 1.39 µM at Factor Xa; 0.000401 µM at TMPRSS2 (read-out: TMPRSS2 IC50); 3.24 µM on HGFA (setting [1]); 18.5 µM against Thrombin; 0.0059 µM on hepsin (setting [2]).

As to `CC(=O)N[C@@H](Cc1cncn1COCc1ccccc1)C(=O)N[C@@H](CCCCNC(=N)N)C(=O)N[C@@H](CCC(C)C)C(=O)N[C@H](CCCNC(=N)N)C(=O)c1nc2ccccc2s1` [JH1143-1, N-[(R)-1-[(1,3-benzothiazol-2-yl)carbonyl]-4-guanidinobutyl](S)-2-[(S)-1-[(S)-2-acetylamino-3-{1-[(benzyloxy)methyl]-5-imidazolyl}propionylamino]-5-guanidinopentylcarbonylamino]-5-methylhexanamide], the IC50 came out at 0.00302 µM at matriptase; 4.8 µM at Factor Xa; 0.00754 µM on TMPRSS2 (read-out: TMPRSS2 IC50); 0.543 µM at HGFA (read-out: HGFA IC50); 4.89 µM against Thrombin; 0.00192 µM on hepsin (read-out: Hepsin IC50).

For `CC(=O)N[C@H]1Cc2ccc(cc2)Oc2cccc(c2)C[C@@H](C(=O)N[C@@H](CCCNC(=N)N)C(=O)c2nc3ccccc3s2)NC(=O)[C@H](CC(C)C)NC1=O` [VD5064B, N-[(S)-1-[(1,3-benzothiazol-2-yl)carbonyl]-4-guanidinobutyl]-(9S,12S,15S)-15-acetylamino-12-isobutyl-11,14-dioxo-2-oxa-10,13-diazatricyclo[15.2.2.1^3,^7]docosa-1(19),3,5,7(22),17,20-hexaene-9-carboxamide], the IC50 was 0.09 µM at matriptase (read-out: Matriptase IC50); 0.955 µM on Factor Xa; 0.011 µM on TMPRSS2 (setting [3]); 0.0614 µM at HGFA (setting [1]); over 20 µM against Thrombin; 0.000168 µM at hepsin (read-out: Hepsin IC50).

As for `CC(=O)N[C@H]1Cc2ccc(cc2)OC/C=C\C[C@@H](C(=O)N[C@@H](CCCNC(=N)N)C(=O)c2nc3ccccc3s2)NC(=O)[C@H](CC(C)C)NC1=O` [VD4010, N-[(S)-1-[(1,3-benzothiazol-2-yl)carbonyl]-4-guanidinobutyl]-(4Z,7S,10S,13S)-13-acetylamino-10-isobutyl-9,12-dioxo-2-oxa-8,11-diazabicyclo[13.2.2]nonadeca-1(17),4,15,18-tetraene-7-carboxamide], the IC50 against matriptase is 0.0034 µM; at Factor Xa, 0.122 µM; at TMPRSS2 (read-out: TMPRSS2 IC50), 0.00121 µM; at HGFA (read-out: HGFA IC50), 0.053 µM; against Thrombin, over 20 µM; at hepsin (read-out: Hepsin IC50), 0.00017 µM.

In the case of `N=C(N)NCCC[C@H](NC(=O)[C@H](Cc1ccccc1)NC(=O)OCC1c2ccccc2-c2ccccc21)C(=O)c1nc2ccccc2s1` [MF1133, (S)-1-[N-(S)-1-[(1,3-benzothiazol-2-yl)carbonyl]-4-guanidinobutylcarbamoyl]-2-phenylethyl(9H-fluoren-9-yl)methanecarbamate], the IC50 at matriptase (read-out: Matriptase IC50) is 2.56 µM; on Factor Xa, 0.0284 µM; on TMPRSS2 (read-out: TMPRSS2 IC50) it was 0.0197 µM; on HGFA (read-out: HGFA IC50), 1.93 µM; at Thrombin, over 20 µM; on hepsin (read-out: Hepsin IC50), 2.68 µM.

Turning to `N=C(N)NCCC[C@@H](NC(=O)[C@H](Cc1ccccc1)NC(=O)[C@H](CCC(N)=O)NCc1ccccc1)C(=O)c1nc2ccccc2s1` [CA1022-1, N-[(S)-1-[N-(R)-1-[(1,3-benzothiazol-2-yl)carbonyl]-4-guanidinobutylcarbamoyl]-2-phenylethyl](S)-2-benzylaminoglutaramide], the IC50 at matriptase (read-out: Matriptase IC50) is 0.0088 µM; on Factor Xa, 0.442 µM; on TMPRSS2 (read-out: TMPRSS2 IC50), 0.00235 µM; at HGFA (read-out: HGFA IC50), 1.3 µM; against Thrombin it was over 20 µM; on hepsin (read-out: Hepsin IC50) it was 0.00083 µM.

With `CC(=O)N[C@@H](Cc1ccccc1)C(=O)N[C@@H](CC(C)C)C(=O)N[C@@H](Cc1ccccc1)C(=O)N[C@@H](CCCNC(=N)N)C(=O)c1nc2ccccc2s1` [ZFH7063, N-[(S)-1-[N-(S)-1-[(1,3-benzothiazol-2-yl)carbonyl]-4-guanidinobutylcarbamoyl]-2-phenylethyl](S)-2-[(S)-2-acetylamino-3-phenylpropionylamino]-4-methylvaleramide], the half-maximal inhibitory concentration (IC50) against matriptase was 0.0072 µM; at Factor Xa it was 0.026 µM; on TMPRSS2 (read-out: TMPRSS2 IC50), 0.003 µM; at HGFA, 0.228 µM; against Thrombin, over 20 µM; against hepsin it was 0.0029 µM.

Turning to `CC(=O)N[C@H]1Cc2ccc(cc2)OC/C=C\C[C@@H](C(=O)N[C@@H](CCCNC(=N)N)C(=O)c2nc3ccccc3s2)NC(=O)[C@@H](Cc2c[nH]c3ccccc23)NC1=O` [VD5027, N-[(S)-1-[(1,3-benzothiazol-2-yl)carbonyl]-4-guanidinobutyl]-(4Z,7S,10R,13S)-13-acetylamino-10-[(3-indolyl)methyl]-9,12-dioxo-2-oxa-8,11-diazabicyclo[13.2.2]nonadeca-1(17),4,15,18-tetraene-7-carboxamide], the IC50 was 0.00568 µM at matriptase (30 min incubation, Boc-QAR-AMC at Km, read-out: Matriptase IC50); 1.36 µM on Factor Xa; 0.000978 µM at TMPRSS2 (setting [3]); 0.00458 µM at HGFA (setting [1]); 19.9 µM against Thrombin; 0.000693 µM at hepsin (setting [2]).
